Experimental data taken from patent US8455487B2, “Methods of controlling insects” (Syngenta Participations AG, priority 2007, dated 2013).

How the values were obtained:
[1] = tested on: pyrethroid resistant Pollen Beetle; assay: B.5 three field trials, control of pyrethroid resistant pollen beetle in oilseed rape; type: in vivo, Meligethes; conditions: foliar
Description: Three further field trials (randomized complete block, 25 plants per plot) were carried out on oilseed rape, which had reached crop stage BBCH 57-63 and which was under attack by actively foraging pollen beetles (adult beetles: average of 27 adult beetles/plot). The active ingredient pymetrozine ((E)-4,5-dihydro-6-methyl-4-(3-pyridylmethylene-amino)-1,2,4-triazin-3(2H)-one; formulated as Plenum 50% WG) was tested at rates of 75, 100 and 150 g ai/ha and compared to the activity of lambda cyhalothrin (7.5 g ai/ha) and thiacloprid (72 g ai/ha). Foliar application of the compounds under test was effected using a conventional spray boom and a volume of 300 L/ha. The degree of pest control was assessed pre-spray, and compared to that observed 1, 4 and 7 days after application.

[2] = tested on: pyrethroid resistant Pollen Beetle; assay: B.4 field trial, control of pyrethroid resistant pollen beetle in oilseed rape; type: in vivo, Meligethes
Description: A further field trial (randomized complete block, 30 racemes per plot) was carried out on oilseed rape, which had reached crop stage BBCH 57-59 (individual flower buds—secondary inflorescence—visible but still closed) and which was under attack by actively foraging pollen beetles (adult beetles: average of 30 adult beetles/plot). The active ingredient pymetrozine ((E)-4,5-dihydro-6-methyl-4-(3-pyridylmethylene-amino)-1,2,4-triazin-3(2H)-one; formulated as Plenum 50% WG) was tested at rates of 50, 100 and 150 g ai/ha and compared to the activity of lambda cyhalothrin (7.5 g ai/ha) and thiacloprid (72 g ai/ha). Foliar application of the compounds under test was effected using a conventional spray boom and a volume of 500 L/ha. The degree of pest control was assessed pre-spray, and compared to that observed 1 and 3 days after application.

pollen beetles [3] = assay: B.3 field trial, control of pollen beetle in oilseed rape, extremely high pest pressure (vs lambda cyhalothrin and thiacloprid); type: in vivo, Meligethes; conditions: foliar
Description: A third field trial (randomized complete block) was carried out on oilseed rape, which had reached crop stage BBCH 55 (new growth with 30 to 60 cm height; flower buds, open flowers, some small seed pods formed) and which was under attack by actively foraging pollen beetles (adult beetles: 10 beetle/flower cluster). The active ingredient pymetrozine ((E)-4,5-dihydro-6-methyl-4-(3-pyridylmethyleneamino)-1,2,4-triazin-3(2H)-one; formulated as Plenum 50% WG) was tested at rates of 50, 100 and 150 g ai/ha and compared to the activity of lambda cyhalothrin (7.5 g ai/ha) and thiacloprid (72 g ai/ha). Foliar application of the compounds under test was effected using a conventional spray boom and a volume of 400 L/ha. The degree of pest control was assessed pre-spray, and compared to that observed 2 hours, 1, 3 and 5 days after application.

pollen beetles [4] = assay: B.2 unreplicated field test, control of pollen beetle in winter oilseed rape (vs lambda-cyhalothrin); type: in vivo, Meligethes; conditions: for % Control 1DAA: foliar
Description: An unreplicated field test was carried out on Winter oilseed rape, (crop stage BBCH 55) and which was under attack by actively foraging pollen beetles (adult beetles: 2.32 beetle/flower cluster). The active ingredient pymetrozine ((E)-4,5-dihydro-6-methyl-4-(3-pyridylmethyleneamino)-1,2,4-triazin-3(2H)-one; formulated as Chess 50% WG) was tested at rates of 12.5, 50 and 200 g ai/ha and compared to the activity of lambda-cyhalothrin (formulated as Karate Zeon 10CS) at 5 g ai/ha. Foliar application of the compounds under test was effected using a conventional spray boom. The degree of pest infestation was assessed pre-spray (average of 2.3 adult pollen beetles per flower cluster in the check plot) and compared to that observed 1day after application.

[5] = tested on: insects from the Coccinellidae family; conditions: Sechser et al. 2002 J. Pest Science 75:72-77; cited from earlier work
[6] = tested on: insects from the Carabidae family; conditions: Sechser et al. 2002 J. Pest Science 75:72-77; cited from earlier work
[7] = tested on: insects from the Staphylinidae family; conditions: Sechser et al. 2002 J. Pest Science 75:72-77; cited from earlier work
pollen beetles [8] = assay: B.1 field trial, control of pollen beetle in winter oilseed rape (vs Lavender oil and Quassan 30); type: in vivo, Meligethes; conditions: foliar
Description: A randomized complete block field trial was carried out on winter oilseed rape, which had reached crop stage BBCH 55 (flower buds, open flowers, some small seed pods formed) and which was under attack by actively foraging pollen beetles (adult beetles: 1 beetle/flower cluster). The active ingredient pymetrozine ((E)-4,5-dihydro-6-methyl-4-(3-pyridylmethyleneamino)-1,2,4-triazin-3(2H)-one; formulated as Plenum 50% WG) was tested at rates of 50 and 150 g ai/ha and compared to the activity of Lavender oil (at rates of 1000 g ai/ha and 2500 g ai/ha) and Quassia amara extract (Quassan 30; applied at rates of 30, 90 and 270 g ai/ha). Foliar application of the compounds under test was effected using a conventional spray boom and a volume of 500 L/ha. The degree of pest control was assessed pre-spray, and compared to that observed 1, 3 and 5 days after application.

CC1(C)[C@H](C(=O)O[C@H](C#N)c2cccc(Oc3ccccc3)c2)[C@@H]1/C=C(\Cl)C(F)(F)F (racemic) [Lambda cyhalothrin]
Mean % Control ([1]; 7.5 g ai/ha, 1 DAA): 33.0% | Mean % Control ([1]; 7.5 g ai/ha, 4 DAA): 20.0% | Mean % Control ([1]; 7.5 g ai/ha, 7 DAA): 18.1% | % Control ([2]; 7.5 g ai/ha, foliar, 1 DAA): 73% | % Control ([2]; 7.5 g ai/ha, foliar, 3 DAA): 60% | level of control (in words) ([2]; recommended field rate (7.5 g ai/ha)): low level of control | % Control (pollen beetles [3]; 7.5 g ai/ha, 1 DAA): 75% | % Control (pollen beetles [3]; 7.5 g ai/ha, 3 DAA): 92% | % Control (pollen beetles [3]; 7.5 g ai/ha, 5 DAA): 23% | % Control (pollen beetles [3]; 7.5 g ai/ha, 2 hrs aa): 63.4% | % Control 1DAA (pollen beetles [4]; 5 g ai/ha, 1DAA): 100%

CC1=NNC(=O)N(N=Cc2cccnc2)C1 [Pymetrozine, 4,5-dihydro-6-methyl-4-(3-pyridylmethyleneamino)-1,2,4-triazin-3(2H)-one]
effect on insects (in words) [5]: no effect | Mean % Control ([1]; 75 g ai/ha, 1 DAA): 89.9% | Mean % Control ([1]; 75 g ai/ha, 4 DAA): 72.4% | Mean % Control ([1]; 75 g ai/ha, 7 DAA): 92.8% | Mean % Control ([1]; 100 g ai/ha, 1 DAA): 87.2% | Mean % Control ([1]; 100 g ai/ha, 4 DAA): 72.9% | Mean % Control ([1]; 100 g ai/ha, 7 DAA): 92.8% | Mean % Control ([1]; 150 g ai/ha, 1 DAA): 95.2% | Mean % Control ([1]; 150 g ai/ha, 4 DAA): 77.4% | Mean % Control ([1]; 150 g ai/ha, 7 DAA): 91.3% | % Control ([2]; 3DAA, rates 50, 100 and 150 g ai/ha): > 90% | % Control ([2]; 50 g ai/ha, foliar, 1 DAA): 60% | % Control ([2]; 50 g ai/ha, foliar, 3 DAA): 96% | % Control ([2]; 100 g ai/ha, foliar, 1 DAA): 62% | % Control ([2]; 100 g ai/ha, foliar, 3 DAA): 97% | % Control ([2]; 150 g ai/ha, foliar, 1 DAA): 78% | % Control ([2]; 150 g ai/ha, foliar, 3 DAA): 96% | effect on insects (in words) [6]: no effect | % Control (pollen beetles [3]; 50 g ai/ha, 1 DAA): 19% | % Control (pollen beetles [3]; 50 g ai/ha, 3 DAA): 44% | % Control (pollen beetles [3]; 50 g ai/ha, 5DAA): 0% | % Control (pollen beetles [3]; 50 g ai/ha, 2 hrs aa): 37.3% | % Control (pollen beetles [3]; 100 g ai/ha, 1 DAA): 61% | % Control (pollen beetles [3]; 100 g ai/ha, 3 DAA): 77% | % Control (pollen beetles [3]; 100 g ai/ha, 5 DAA): 0% | % Control (pollen beetles [3]; 100 g ai/ha, 2 hrs aa): 39.9% | % Control (pollen beetles [3]; 150 g ai/ha, 1 DAA): 61% | % Control (pollen beetles [3]; 150 g ai/ha, 3 DAA): 84% | % Control (pollen beetles [3]; 150 g ai/ha, 5DAA): 0% | % Control (pollen beetles [3]; 150 g ai/ha, 2 hrs aa): 42.5% | effect on insects (in words) [7]: no effect | % Control 1DAA (pollen beetles [4]; 12.5 g ai/ha, 1DAA): 90% | % Control 1DAA (pollen beetles [4]; 50 g ai/ha, 1 DAA): 98% | % Control 1DAA (pollen beetles [4]; 200 g ai/ha, 1DAA): 100% | control of Meligethes (in words) (pollen beetles [4]; at all rates (12.5, 50, 200 g ai/ha), 1DAA): excellent control | Percentage Control (pollen beetles [8]; 50 g ai/ha, 1 DAA): 90% | Percentage Control (pollen beetles [8]; 50 g ai/ha, 3 DAA): 98% | Percentage Control (pollen beetles [8]; 50 g ai/ha, 5DAA): 99% | Percentage Control (pollen beetles [8]; 150 g ai/ha, 1 DAA): 86% | Percentage Control (pollen beetles [8]; 150 g ai/ha, 3 DAA): 92% | Percentage Control (pollen beetles [8]; 150 g ai/ha, 5DAA): 95%

N#C/N=C1\SCCN1Cc1ccc(Cl)nc1 [Thiacloprid]
Mean % Control ([1]; 72 g ai/ha, 1 DAA): 74.7% | Mean % Control ([1]; 72 g ai/ha, 4 DAA): 92.5% | Mean % Control ([1]; 72 g ai/ha, 7 DAA): 78.3% | % Control ([2]; 72 g ai/ha, foliar, 1 DAA): 63% | % Control ([2]; 72 g ai/ha, foliar, 3 DAA): 94% | % Control (pollen beetles [3]; 72 g ai/ha, 1 DAA): 67% | % Control (pollen beetles [3]; 72 g ai/ha, 3 DAA): 92% | % Control (pollen beetles [3]; 72 g ai/ha, 5 DAA): 0% | % Control (pollen beetles [3]; 72 g ai/ha, 2 hrs aa): 39.9%
